Reference: US9156845B2, “4-(substituted amino)-7H-pyrrolo[2,3-d] pyrimidines as LRRK2 inhibitors” (Pfizer Inc., priority 2012, dated 2015)
Read-outs that look alike come from different tables or passages of the source.

Columns and labels:
Assay in all cases: ActivX kinase probe assay (human PBMC)
Type in all cases: binding
RSK2 domain1 = RSK2 domain1 (Homo sapiens (Human), UniProt P51812); settings: RSK2 domain1, read-out: percent inhibition
ZC2/TNIK = ZC2/TNIK (Homo sapiens (Human), UniProt Q9UKE5); settings: ZC2/TNIK, read-out: percent inhibition
eEF2K = eEF2K (Homo sapiens (Human), UniProt O00418); settings: eEF2K, read-out: percent inhibition
IRAK3 = IRAK3 (Homo sapiens (Human), UniProt Q9Y616); settings: IRAK3, read-out: percent inhibition
LOK = LOK (Homo sapiens (Human), UniProt O94804); settings: LOK, read-out: percent inhibition
JAK3 domain2 = JAK3 domain2 (Homo sapiens (Human), UniProt P52333); settings: JAK3 domain2, read-out: percent inhibition
Sequence of JAK3 domain2 (P52333 whole entry, the tested form may be a part): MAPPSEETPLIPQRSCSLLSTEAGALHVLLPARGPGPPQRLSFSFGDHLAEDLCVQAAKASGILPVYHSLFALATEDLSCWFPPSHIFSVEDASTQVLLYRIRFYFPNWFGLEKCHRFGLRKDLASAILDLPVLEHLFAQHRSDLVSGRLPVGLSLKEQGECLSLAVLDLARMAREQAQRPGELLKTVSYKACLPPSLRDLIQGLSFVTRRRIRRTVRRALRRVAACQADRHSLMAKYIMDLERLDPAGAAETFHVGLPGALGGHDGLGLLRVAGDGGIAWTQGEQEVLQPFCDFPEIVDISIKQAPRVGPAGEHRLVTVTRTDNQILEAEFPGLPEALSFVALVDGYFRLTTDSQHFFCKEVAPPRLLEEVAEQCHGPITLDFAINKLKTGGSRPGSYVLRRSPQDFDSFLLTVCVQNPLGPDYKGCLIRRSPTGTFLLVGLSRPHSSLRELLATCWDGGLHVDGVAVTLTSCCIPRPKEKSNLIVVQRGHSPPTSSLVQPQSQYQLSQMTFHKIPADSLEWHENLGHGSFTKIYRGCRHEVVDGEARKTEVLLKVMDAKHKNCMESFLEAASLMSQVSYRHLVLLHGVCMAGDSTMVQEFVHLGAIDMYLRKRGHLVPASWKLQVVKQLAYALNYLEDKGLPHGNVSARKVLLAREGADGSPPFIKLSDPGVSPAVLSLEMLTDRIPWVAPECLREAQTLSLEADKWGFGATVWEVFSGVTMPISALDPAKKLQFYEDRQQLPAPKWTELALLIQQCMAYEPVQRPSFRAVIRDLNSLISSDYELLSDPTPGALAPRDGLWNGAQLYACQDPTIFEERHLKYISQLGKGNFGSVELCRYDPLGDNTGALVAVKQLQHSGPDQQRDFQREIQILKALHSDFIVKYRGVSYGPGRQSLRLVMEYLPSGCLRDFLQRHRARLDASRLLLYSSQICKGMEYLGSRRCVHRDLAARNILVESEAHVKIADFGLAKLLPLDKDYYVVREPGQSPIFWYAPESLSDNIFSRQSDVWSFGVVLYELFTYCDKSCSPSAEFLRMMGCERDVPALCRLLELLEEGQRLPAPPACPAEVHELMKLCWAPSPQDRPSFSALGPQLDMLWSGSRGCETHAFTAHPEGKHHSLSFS

FYN = FYN (Homo sapiens (Human), UniProt P06241); settings: FYN, read-out: percent inhibition
LYN = LYN (Homo sapiens (Human), UniProt P07948); settings: LYN, read-out: percent inhibition
TAO2 = TAO2 (Homo sapiens (Human), UniProt Q9UL54); settings: TAO2, read-out: percent inhibition
MLKL = MLKL (Homo sapiens (Human), UniProt Q8NB16); settings: MLKL, read-out: percent inhibition
Sequence of MLKL (Q8NB16 whole entry): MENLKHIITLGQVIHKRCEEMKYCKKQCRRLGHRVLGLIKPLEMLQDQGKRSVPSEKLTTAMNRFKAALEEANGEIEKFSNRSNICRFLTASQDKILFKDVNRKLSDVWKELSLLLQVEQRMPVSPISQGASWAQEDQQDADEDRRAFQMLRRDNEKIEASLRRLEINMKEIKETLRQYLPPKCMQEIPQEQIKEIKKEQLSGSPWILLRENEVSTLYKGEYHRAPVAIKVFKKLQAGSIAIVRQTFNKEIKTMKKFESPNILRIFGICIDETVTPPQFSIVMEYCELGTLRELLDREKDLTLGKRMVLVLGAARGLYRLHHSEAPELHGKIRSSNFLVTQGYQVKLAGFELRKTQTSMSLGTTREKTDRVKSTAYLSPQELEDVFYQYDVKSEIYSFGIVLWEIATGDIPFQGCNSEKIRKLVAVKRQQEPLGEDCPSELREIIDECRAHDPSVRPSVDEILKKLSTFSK

LRRK2 = LRRK2 (Homo sapiens (Human), UniProt Q5S007); settings: 0.1 μM, read-out: percent inhibition
MAP2K3 = MAP2K3 (Homo sapiens (Human), UniProt P46734); settings: MAP2K3, read-out: percent inhibition
Sequence of MAP2K3 (P46734 whole entry): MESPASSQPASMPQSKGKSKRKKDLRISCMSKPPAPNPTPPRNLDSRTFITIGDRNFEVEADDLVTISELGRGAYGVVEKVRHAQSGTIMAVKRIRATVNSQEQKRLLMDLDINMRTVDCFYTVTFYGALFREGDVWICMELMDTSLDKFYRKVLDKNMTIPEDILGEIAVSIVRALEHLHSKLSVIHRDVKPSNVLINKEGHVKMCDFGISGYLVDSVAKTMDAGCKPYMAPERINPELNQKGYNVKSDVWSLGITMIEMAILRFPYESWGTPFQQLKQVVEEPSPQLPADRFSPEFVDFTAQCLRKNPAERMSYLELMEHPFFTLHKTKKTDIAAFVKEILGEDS

ACK = ACK (Homo sapiens (Human), UniProt Q07912); settings: ACK, read-out: percent inhibition
PKD2 = PKD2 (Homo sapiens (Human), UniProt Q9BZL6); settings: PKD2, read-out: percent inhibition
Sequence of PKD2 (Q9BZL6 whole entry): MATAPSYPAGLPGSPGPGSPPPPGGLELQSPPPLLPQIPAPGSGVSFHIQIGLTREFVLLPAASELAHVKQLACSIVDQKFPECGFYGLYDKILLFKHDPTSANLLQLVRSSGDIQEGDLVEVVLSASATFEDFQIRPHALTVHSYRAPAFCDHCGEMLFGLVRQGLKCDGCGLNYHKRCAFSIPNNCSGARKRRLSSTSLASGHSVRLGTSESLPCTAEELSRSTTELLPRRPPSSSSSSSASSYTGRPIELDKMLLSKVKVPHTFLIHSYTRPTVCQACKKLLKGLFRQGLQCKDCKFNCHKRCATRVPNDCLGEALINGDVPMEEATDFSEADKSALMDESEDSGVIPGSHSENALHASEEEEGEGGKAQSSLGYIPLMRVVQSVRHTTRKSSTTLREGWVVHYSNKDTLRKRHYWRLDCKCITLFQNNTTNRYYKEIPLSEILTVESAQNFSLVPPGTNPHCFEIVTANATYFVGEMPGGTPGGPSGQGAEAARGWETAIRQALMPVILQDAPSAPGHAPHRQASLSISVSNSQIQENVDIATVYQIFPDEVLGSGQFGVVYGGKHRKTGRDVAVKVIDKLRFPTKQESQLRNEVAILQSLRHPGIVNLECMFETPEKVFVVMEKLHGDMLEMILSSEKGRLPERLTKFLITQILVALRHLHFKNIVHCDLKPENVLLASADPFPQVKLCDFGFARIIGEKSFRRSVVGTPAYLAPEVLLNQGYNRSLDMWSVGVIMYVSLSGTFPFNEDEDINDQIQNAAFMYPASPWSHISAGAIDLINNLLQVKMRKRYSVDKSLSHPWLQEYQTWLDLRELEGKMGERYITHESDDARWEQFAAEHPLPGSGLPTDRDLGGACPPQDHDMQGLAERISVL

Wnk1, Wnk2, Wnk3 = test system: Wnk1, Wnk2, Wnk3
NuaK2 = NuaK2 (Homo sapiens (Human), UniProt Q9H093); settings: NuaK2, read-out: percent inhibition
p70S6Kb = p70S6Kb (Homo sapiens (Human), UniProt Q9UBS0); settings: p70S6Kb, read-out: percent inhibition
PI4KB = PI4KB (Homo sapiens (Human), UniProt Q9UBF8); settings: PI4KB, read-out: percent inhibition
SLK = SLK (Homo sapiens (Human), UniProt Q9H2G2); settings: SLK, read-out: percent inhibition
RSK1 domain2 = RSK1 domain2 (Homo sapiens (Human), UniProt Q15418); settings: RSK1 domain2, read-out: percent inhibition
FYN, SRC, YES = test system: FYN, SRC, YES
IKKa = IKKa (Homo sapiens (Human), UniProt O15111); settings: IKKa, read-out: percent inhibition
FER = FER (Homo sapiens (Human), UniProt P16591); settings: FER, read-out: percent inhibition
MST4, YSK1 = test system: MST4, YSK1
PIP4K2C = PIP4K2C (Homo sapiens (Human), UniProt Q8TBX8); settings: read-out: percent inhibition
Sequence of PIP4K2C (Q8TBX8 whole entry): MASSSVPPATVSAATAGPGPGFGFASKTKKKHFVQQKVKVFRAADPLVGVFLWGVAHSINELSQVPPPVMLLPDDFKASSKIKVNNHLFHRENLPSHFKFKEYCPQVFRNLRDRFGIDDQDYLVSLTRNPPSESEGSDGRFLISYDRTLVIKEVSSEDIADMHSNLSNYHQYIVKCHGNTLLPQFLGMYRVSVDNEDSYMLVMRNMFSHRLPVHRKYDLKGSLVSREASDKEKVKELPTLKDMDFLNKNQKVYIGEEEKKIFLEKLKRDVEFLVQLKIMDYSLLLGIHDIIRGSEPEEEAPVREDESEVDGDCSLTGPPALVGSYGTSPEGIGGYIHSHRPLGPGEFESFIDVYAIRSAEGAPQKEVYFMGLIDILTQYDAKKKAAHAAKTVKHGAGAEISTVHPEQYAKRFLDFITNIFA

PIK3CB = PIK3CB (Homo sapiens (Human), UniProt P42338); settings: PIK3CB, read-out: percent inhibition
GCK = GCK (Homo sapiens (Human), UniProt Q12851); settings: GCK, read-out: percent inhibition
JNK1, JNK2, JNK3 = test system: JNK1, JNK2, JNK3
IRAK1 = IRAK1 (Homo sapiens (Human), UniProt P51617); settings: IRAK1, read-out: percent inhibition
CDK2 = CDK2 (Homo sapiens (Human), UniProt P24941); settings: CDK2, read-out: percent inhibition
PITSLRE = test system: PITSLRE
PIK3CG = PIK3CG (Homo sapiens (Human), UniProt P48736); settings: PIK3CG, read-out: percent inhibition
Sequence of PIK3CG (P48736 whole entry): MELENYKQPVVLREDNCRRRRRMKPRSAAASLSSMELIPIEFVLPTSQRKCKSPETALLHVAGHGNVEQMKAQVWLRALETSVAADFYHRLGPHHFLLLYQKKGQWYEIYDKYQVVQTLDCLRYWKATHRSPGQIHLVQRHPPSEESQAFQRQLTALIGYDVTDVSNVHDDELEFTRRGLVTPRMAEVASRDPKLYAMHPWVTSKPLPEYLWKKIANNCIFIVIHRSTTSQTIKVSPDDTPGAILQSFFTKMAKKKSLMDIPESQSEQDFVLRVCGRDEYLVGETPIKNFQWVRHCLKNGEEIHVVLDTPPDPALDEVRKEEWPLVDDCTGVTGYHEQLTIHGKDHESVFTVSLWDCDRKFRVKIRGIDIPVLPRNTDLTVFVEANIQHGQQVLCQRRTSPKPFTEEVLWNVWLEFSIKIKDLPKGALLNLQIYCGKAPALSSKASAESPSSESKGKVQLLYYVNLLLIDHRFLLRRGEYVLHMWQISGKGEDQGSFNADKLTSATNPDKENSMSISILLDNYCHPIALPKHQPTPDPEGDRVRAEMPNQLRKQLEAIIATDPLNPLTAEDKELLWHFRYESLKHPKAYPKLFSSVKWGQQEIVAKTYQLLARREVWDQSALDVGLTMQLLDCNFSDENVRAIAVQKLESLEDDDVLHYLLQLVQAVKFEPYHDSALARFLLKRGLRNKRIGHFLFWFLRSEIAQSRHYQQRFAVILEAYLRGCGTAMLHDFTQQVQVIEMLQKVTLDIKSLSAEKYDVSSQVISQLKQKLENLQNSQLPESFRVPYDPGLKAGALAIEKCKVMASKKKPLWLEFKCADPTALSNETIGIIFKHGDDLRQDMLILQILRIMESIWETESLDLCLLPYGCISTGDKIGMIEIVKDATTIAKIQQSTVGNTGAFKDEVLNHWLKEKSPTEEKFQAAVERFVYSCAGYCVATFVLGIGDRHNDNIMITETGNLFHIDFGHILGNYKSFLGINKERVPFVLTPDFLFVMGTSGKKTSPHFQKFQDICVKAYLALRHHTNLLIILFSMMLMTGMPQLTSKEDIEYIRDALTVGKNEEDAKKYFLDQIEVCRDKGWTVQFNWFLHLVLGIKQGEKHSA

CDC2 = CDC2 (Homo sapiens (Human), UniProt P06493); settings: CDC2, read-out: percent inhibition
Sequence of CDC2 (P06493 whole entry): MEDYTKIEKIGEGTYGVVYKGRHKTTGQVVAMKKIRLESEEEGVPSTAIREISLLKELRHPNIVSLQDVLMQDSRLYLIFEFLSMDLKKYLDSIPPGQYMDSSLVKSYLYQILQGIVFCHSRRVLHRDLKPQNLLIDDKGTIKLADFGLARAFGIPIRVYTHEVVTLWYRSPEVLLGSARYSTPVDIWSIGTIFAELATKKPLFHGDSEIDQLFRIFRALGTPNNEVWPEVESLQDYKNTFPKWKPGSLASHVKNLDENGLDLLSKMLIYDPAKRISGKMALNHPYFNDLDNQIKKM

PIP5K3 = PIP5K3 (Homo sapiens (Human), UniProt Q9Y2I7); settings: PIP5K3, read-out: percent inhibition
AKT1 = AKT1 (Homo sapiens (Human), UniProt P31749); settings: AKT1, read-out: percent inhibition

Cn1cc(-c2c[nH]c3ncnc(N4CCOCC4)c23)cc1C#N [Example 217, 1-methyl-4-[4-(morpholin-4-yl)-7H-pyrrolo[2,3-d]pyrimidin-5-yl]-1H-pyrrole-2-carbonitrile]
inhibition at 0.1 µM (RSK2 domain1; 0.1 μM): 13.2% | inhibition at 1 µM (RSK2 domain1; 1 μM): 61.6% | inhibition at 0.1 µM (ZC2/TNIK; 0.1 μM): -10.7% | inhibition at 1 µM (ZC2/TNIK; 1 μM): 3.9% | inhibition at 0.1 µM (eEF2K; 0.1 μM): -12.1% | inhibition at 1 µM (eEF2K; 1 μM): 2.2% | inhibition at 0.1 µM (IRAK3; 0.1 μM): 16% | inhibition at 1 µM (IRAK3; 1 μM): 72.4% | inhibition at 0.1 µM (LOK; 0.1 μM): -6.4% | inhibition at 1 µM (LOK; 1 μM): 56.1% | inhibition at 0.1 µM (JAK3 domain2; 0.1 μM): -7.8% | inhibition at 1 µM (JAK3 domain2; 1 μM): 4.9% | inhibition at 0.1 µM (FYN; 0.1 μM): -2.1% | inhibition at 1 µM (FYN; 1 μM): -6.8% | inhibition at 0.1 µM (LYN; 0.1 μM): 8.3% | inhibition at 1 µM (LYN; 1 μM): -19.2% | inhibition at 0.1 µM (TAO2; 0.1 μM): -20.2% | inhibition at 1 µM (TAO2; 1 μM): -18.4% | inhibition at 0.1 µM (MLKL; 0.1 μM): 2.5% | inhibition at 1 µM (MLKL; 1 μM): -3.3% | inhibition at 0.1 µM (LRRK2): 88.4% | inhibition at 0.1 µM (MAP2K3; 0.1 μM): 2.5% | inhibition at 1 µM (MAP2K3; 1 μM): 3.3% | inhibition at 0.1 µM (ACK; 0.1 μM): -9.8% | inhibition at 1 µM (ACK; 1 μM): -19.5% | inhibition at 0.1 µM (PKD2; 0.1 μM): 5.8% | inhibition at 1 µM (PKD2; 1 μM): 4.5% | percent inhibition (Wnk1, Wnk2, Wnk3; 0.1 μM): −6.3% | percent inhibition (Wnk1, Wnk2, Wnk3; 1 μM): −21.1% | inhibition at 0.1 µM (NuaK2; 0.1 μM): 1.3% | inhibition at 1 µM (NuaK2; 1 μM): 24.9% | inhibition at 0.1 µM (p70S6Kb; 0.1 μM): -2.2% | inhibition at 1 µM (p70S6Kb; 1 μM): -16.7% | inhibition at 0.1 µM (PI4KB; 0.1 μM): 9.9% | inhibition at 1 µM (PI4KB; 1 μM): -0.5% | inhibition at 0.1 µM (SLK; 0.1 μM): 22.5% | inhibition at 1 µM (SLK; 1 μM): 39.1% | inhibition at 0.1 µM (RSK1 domain2; 0.1 μM): -3.4% | inhibition at 1 µM (RSK1 domain2; 1 μM): 5% | percent inhibition (FYN, SRC, YES; 0.1 μM): 18.4% | percent inhibition (FYN, SRC, YES; 1 μM): −1.4% | inhibition at 0.1 µM (IKKa; 0.1 μM): -2.5% | inhibition at 1 µM (IKKa; 1 μM): -3.7% | inhibition at 0.1 µM (FER; 0.1 μM): 5.2% | inhibition at 1 µM (FER; 1 μM): 16.3% | percent inhibition (MST4, YSK1; 0.1 μM): 5.3% | percent inhibition (MST4, YSK1; 1 μM): 9.9% | inhibition at 0.1 µM (PIP4K2C; PIP4K2C (first line of two)): 6.2% | inhibition at 1 µM (PIP4K2C; PIP4K2C (first line of two)): -11.9% | inhibition at 0.1 µM (PIP4K2C; PIP4K2C (second line of two)): -4.7% | inhibition at 1 µM (PIP4K2C; PIP4K2C (second line of two)): 4% | inhibition at 0.1 µM (PIK3CB; 0.1 μM): -5.3% | inhibition at 1 µM (PIK3CB; 1 μM): -29.7% | inhibition at 0.1 µM (GCK; 0.1 μM): -5.2% | inhibition at 1 µM (GCK; 1 μM): 27.2% | percent inhibition (JNK1, JNK2, JNK3; 0.1 μM): −18.2% | percent inhibition (JNK1, JNK2, JNK3; 1 μM): −6.4% | inhibition at 0.1 µM (IRAK1; 0.1 μM): -1.7% | inhibition at 1 µM (IRAK1; 1 μM): 7.5% | inhibition at 0.1 µM (CDK2; 0.1 μM): 3.6% | inhibition at 1 µM (CDK2; 1 μM): 16.5% | percent inhibition (PITSLRE; 0.1 μM): −6.7% | percent inhibition (PITSLRE; 1 μM): 6.6% | inhibition at 0.1 µM (PIK3CG; 0.1 μM): -3.4% | inhibition at 1 µM (PIK3CG; 1 μM): -22% | inhibition at 0.1 µM (CDC2; 0.1 μM): 28.7% | inhibition at 1 µM (CDC2; 1 μM): 24.4% | inhibition at 0.1 µM (PIP5K3; 0.1 μM): 16% | inhibition at 1 µM (PIP5K3; 1 μM): 2.5% | inhibition at 0.1 µM (AKT1; 0.1 μM): 5.5% | inhibition at 1 µM (AKT1; 1 μM): -3.6%
